Measurements from patent US7270968B2, “PTH analogs for renal osteodystrophy and related uses” (The General Hospital Corporation, priority 2000, dated 2007).
Where two headings read alike, the source gives them in different places.

Assays:
CPTHR [1] = assay: Downregulation of CPTHR binding in C59 cells after pretreatment; format: cell-based, mouse; settings: for Downregulation of CPTHR binding: exposure 24 hr; for Radioligand binding, % of controls after drug removal: 24 h after removal; for Reduction of specific binding / Reduction of specific 125I-[Tyr34]hPTH(19-84) binding: preincubation 16 h
Experimental: Specific binding, is expressed as mean ± standard deviation of triplicates. * p<0.05, ** P<0.01.
For binding experiments, cells (100,000 cells/ml) were plated in 24-well dishes and cultured at 33° C. for 7 to 14 days. […] Receptor number was ascertained by Scatchard analysis, using [Tyr^34]hPTH-(19-84) or hPTH(1-84) as competing ligand. […] In some experiments, cells were washed with acidic buffer (50 mM glycine, 150 mM NaCl, pH 4.0) to remove residual bound ligand, prior to addition of radioligand.
(1 mM), forskolin (10 μM), insulin (100 ng/mL), IGF-1 ([…]) or dexamethasone (100 nM).

PTH1R = target: T1, PTH1R (Homo sapiens, UniProt Q03431); settings: cited from earlier work
T1 sequence (Q03431 27-593): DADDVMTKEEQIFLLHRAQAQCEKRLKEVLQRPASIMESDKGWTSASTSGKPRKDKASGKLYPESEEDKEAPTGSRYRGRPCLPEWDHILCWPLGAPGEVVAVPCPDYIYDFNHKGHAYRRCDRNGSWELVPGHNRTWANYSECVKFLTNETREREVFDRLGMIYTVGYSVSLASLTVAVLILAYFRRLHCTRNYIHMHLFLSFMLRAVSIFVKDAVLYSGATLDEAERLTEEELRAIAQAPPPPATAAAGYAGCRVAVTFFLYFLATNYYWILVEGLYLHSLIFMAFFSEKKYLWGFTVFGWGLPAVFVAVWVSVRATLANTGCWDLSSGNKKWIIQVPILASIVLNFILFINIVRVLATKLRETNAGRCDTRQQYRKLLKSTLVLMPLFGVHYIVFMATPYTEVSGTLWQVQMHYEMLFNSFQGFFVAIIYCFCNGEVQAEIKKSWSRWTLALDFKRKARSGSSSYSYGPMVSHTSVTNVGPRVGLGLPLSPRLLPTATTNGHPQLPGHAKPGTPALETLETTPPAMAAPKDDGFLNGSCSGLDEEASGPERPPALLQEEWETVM

CPTHR [2] = assay: Competitive displacement of 125I-[Tyr34]hPTH(19-84) radioligand in C59 (OC59) cells; format: binding, mouse; settings: for Binding to the CPTHR: Example 2, either alone or in combination
Experimental: The human PTH peptides shown were tested for their ability to displace the ^125I-[Tyr^34]hPTH(19-84) tracer in C59 cells. Experiments were performed as described in FIG. 1. Results are expressed as the percentage of maximal specific binding observed in the absence of competing ligand and are shown as mean±standard deviation of triplicates in this representative experiment.
OC59 cells were incubated at 15° C. for 4 hr with ^125I[Tyr^34]hPTH(19-84) tracer (150,000 cpn/well) plus the indicated competing human PTH peptides. Results are means of triplicates.
The [Tyr^34]hPTH(19-84) peptide was radioiodinated with Na[^125I](2000 Ci/mmol) by the chloramine-T method and purified by HPLC, as previously described (Inomata, N., et al., Endocrinology 136:4732-4740 (1995)). For binding experiments, cells (100,000 cells/ml) were plated in 24-well dishes and cultured at 33° C. for 7 to 14 days. Confluent monolayers then were washed with 0.5 ml binding buffer [100 mM NaCl, 5 mM KCl, 2 mM CaCl2, 50 mM Tris-HCl (pH 7.8) plus 5% heat-inactivated horse serum] before incubation with ^125I-[Tyr^34]hPTH-(19-84) (100,000-200,000 cpm/well) in 0.5 ml binding buffer for 4 h at 15° C. Receptor number was ascertained by Scatchard analysis, using [Tyr^34]hPTH-(19-84) or hPTH(1-84) as competing ligand. […] In some experiments, cells were washed with acidic buffer (50 mM glycine, 150 mM NaCl, pH 4.0) to remove residual bound ligand, prior to addition of radioligand.

Gs-linked PTH receptors [3] = assay: Cyclic AMP accumulation in C cells (OC1, OC14, OC59); format: cell-based, mouse; settings: three C cells
Experimental: The buffer then was rapidly aspirated, the plates were frozen in liquid nitrogen, and the frozen cells were subsequently thawed directly into 0.5 ml of 50 mM HCl. Cell-associated cAMP in the acid extracts was measured using an RIΛ kit (NUN Life Science Products, Boston, Mass., U.S.A.). Results were expressed as picomoles of cAMP produced per well over 15 min.

OC14 cells [4] = assay: Cell death by trypan blue staining in OC14 cells; format: cell-based, mouse
Experimental: OC14 cells were plated, cultured at 33° C. for 3 days and then incubated at 39° C. for 5-7 days before addition of PTH peptides for a further 16 hr, followed by trypan blue staining (see Example 1). A) Human PTH 1-84 dose response, B) Response to hPTH(1-84), 100 nM and hPTH(39-84), 1000 nM, C) Response to [Tyr^34]hPTH(24-84), 100 nM, D) Caspase dependance (“C”=controls) The Caspase-3 inhibitor DEVD (“D”) was added 1 hr prior to addition of 100 nM hPTH(1-84) (“P”). Results are expressed as mean±SD of quadruplicate determinations of the percentage of nonvital trypan blue-stained cells. * p<0.05, ** p<0.01.
Briefly, cells were plated at 50,000 cells/well in 24-well dishes at 33° C. and shifted to nonpermissive conditions (39° C.) after 2 days. Cells were grown at 39° C. for an additional 4-6 days in α-MEM supplemented with 2.5% of FBS and 1% PS and then treated with different hormones for additional 16-18 hr. Non-adherent cells were combined with adherent cells that were released from the cultures with trypsin-EDTA, centrifuged and resuspended in 0.1% trypan blue solution.

Gs-linked PTH receptors [5] = settings: F1 cells and osteoblastic subclones; cited from earlier work
C×43 expression = assay: Connexin 43 immunocytochemical staining in OC cells; format: cell-based, mouse; settings: 100 nM, 2 hr
Experimental: OC14 cells were plated on glass coverslips at 72,000 cells/cm^2, cultured at 33° C. for 2 days and then shifted at 39° C. for 3-5 days before stimulation with CPTHR ligands. OC14 cells were treated for 2 hr with (A) vehicle alone, (B) 100 nM hPTH(1-84) or (C) 1000 nm hPTH(39-84). Cells were fixed and stained for C×43 expression as described (see Example 1).
For Immunocytochemical analysis, cells were plated on glass chamber slides at 72,000 cells/cm^2, cultured for two days at 33° C. and then shifted for an additional 4-6 days at 39° C. Cells were treated with vehicle alone (0.1% TFA) or with the appropriate hormone for the time indicated. The immunocytochemical staining was performed as previously described (Kato, Y., et al., J. Bone Miner. Res. 12:2014-2023 (1997)). Briefly, cells were fixed in 3% paraformaldehyde/2% sucrose in PBS and permeabilized for 5 min. with 0.05% Triton-X 100 diluted in PBS. The fixed slides were blocked in 5% BSA in TBS-T buffer for 2 h at room temperature. The cells then were incubated with a 1:125 dilution of anti-C×43 monoclonal antibody for 30 min at room temperature. The bound antibody was detected using a Vectastain ABC kit, followed by staining with VIP substrate according to manufacturer's instructions (Vector Laboratories, Burlingame, Calif.). Counter staining was performed using 0.5% methyl green. […]

OC14 cells [6] = assay: Apoptosis by Hoechst 33258 DNA staining in OC cells; format: cell-based, mouse; settings: 100 nM, 6 hr
Experimental: (§1) Cells plated on glass coverslips and maintained at 33° C. for 33 days were shifted to 39° C. for 5-7 days before addition of 100 nM hPTH(1-84) (B, D) or vehicle alone (A, C) for 6 hr. At the end of the incubations, cells were fixed and stained with Hoechst 33258 (A and B) or for TUNEL (C and D) (see Example 1). Arrows indicate apoptotic cells. 200× magnification.
(§2) The pyknotic fragmentation of nuclei typical of apoptotic cells was detected using Hoechst-33258 fluorescent dye (Sigma Co., St. Louis, Mo., U.S.A.). Briefly, cells were cultured on glass coverslips and maintained in culture at nonpermissive conditions for 4-6 days in (α-MEM supplemented with 2-5% of FBS and 1% PS. After exposure to the test hormones for 6 hr, culture medium was aspirated and cells were fixed in 4% paraformaldehyde in phosphate buffered solution and then stained with Hoechst-33258 ([…]) for 5 min at room temperature. Cells were washed and mounted with glycerol-PBS (9:1, v/v). The stained nuclei were visualized by fluorescence microscopy using DAPI filter. In some experiments, apoptotic cells were detected by the terminal deoxynucleotidyl transferase-mediated nick end labeling (TUNEL) reaction, using the In Situ Cell Death Detection Kit from Roche Molecular Biochemicals (Indianapolis, Ind., U.S.A.) following the manufacturer's instruction.

OC14 cells [7] = assay: Apoptosis by TUNEL assay in OC cells; format: cell-based, mouse; settings: 100 nM, 6 hr
Experimental: as §1, §2

C=C1/C(=C\C=C2/CCC[C@]3(C)[C@@H]([C@H](C)CCCC(C)(C)O)CC[C@@H]23)C[C@@H](O)C[C@@H]1O [1,25(OH)2D3]
Downregulation of CPTHR binding (CPTHR [1]; 10 nM): No downregulation

CCCCCCCCCCCCCC(=O)O[C@@H]1[C@@H](C)[C@@]2(O)[C@@H](C=C(CO)C[C@]3(O)C(=O)C(C)=C[C@@H]23)[C@H]2C(C)(C)[C@]12OC(C)=O [TPA]
Radioligand binding, % of controls after drug removal (CPTHR [1]): 63% | Reduction of specific binding (CPTHR [1]; 10 nM): 48±12%

C[C@H](CCC(=O)O)C[C@H](C)C[C@H](C)C(=O)/C=C(\O)[C@H](C)C[C@H](C)C/C=C/[C@@H](C)[C@@H](O)[C@@H](C)[C@@H](O)C[C@@H]1CC[C@@](C)([C@H]2CC[C@@](C)([C@@H](C)O)O2)O1 [ionomycin]
Radioligand binding, % of controls after drug removal (CPTHR [1]): 100% | Reduction of specific binding (CPTHR [1]; 1 μM): 71±3%

IGF-1: IGF-1
Downregulation of CPTHR binding (CPTHR [1]): No downregulation

PTH(53-84): Carboxyl fragment 53-84 of intact PTH (KKEDNVLVESHEKSLGEADKADVNVLTKAKSQ; Parathyroid hormone; UniProt P01270 84-115, looked up, fragment)
Binding and activation of the PTH1R (PTH1R): neither bind nor activate

hPTH(1-34): Amino-terminal human PTH fragment 1-34
Displacement of the tracer (CPTHR [2]; concentrations up to 1000 nM): did not displace the tracer significantly | Downregulation of CPTHR binding (CPTHR [1]; 1 μM): No downregulation | cAMP response (Gs-linked PTH receptors [3]): absence of a detectable cAMP response | Effect on cell death (trypan blue) (OC14 cells [4]; concentrations as high as 1000 nM): inactive | cAMP response (Gs-linked PTH receptors [5]): no detectable cAMP response

hPTH(1-84): Recombinant human parathyroid hormone (1-84), the intact hormone
Reduction of specific 125I-[Tyr34]hPTH(19-84) binding (CPTHR [1]; 200 nM): 19±5% | Reduction of specific 125I-[Tyr34]hPTH(19-84) binding (CPTHR [1]; 1000 nM): 66±7% | cAMP response (Gs-linked PTH receptors [3]): absence of a detectable cAMP response | Expression of C×43 by immunostaining (C×43 expression): increased the expression of C×43 | Nuclear pyknosis and chromatin condensation, Hoechst dye 33258 (OC14 cells [6]): increased nuclear pylulosis ;aid chromatin condensation | Apoptosis, TUNEL immunocytochemical assay (OC14 cells [7]): Increased apoptosis | Concentration of maximal effect upon cell death (OC14 cells [4]; 16 hr, trypan blue): 10 nM | EC50 (OC14 cells [4]; 16 hr, trypan blue, read-out: EC50, effect upon cell death): ~0.0001 µM | Change in trypan blue-stained cells (OC14 cells [4]; after 16 hr): doubling | cAMP response (Gs-linked PTH receptors [5]): no detectable cAMP response

hPTH(20-30): Short synthetic human PTH peptide spanning residues 20-30 (RVEWLRKKLQD; Parathyroid hormone; UniProt P01270 51-61, looked up, fragment)
Binding to the CPTHR (CPTHR [2]): failed to bind

hPTH(24-54): Short synthetic human PTH peptide spanning both binding domains 24-27 and 53-54 (LRKKLQDVHNFVALGAPLAPRDAGSQRPRKK; Parathyroid hormone; UniProt P01270 55-85, looked up, fragment)
EC50 (CPTHR [2]; Example 2, PTH1R-null CPTHR-expressing calvarial-derived clonal cells, read-out: apparent EC50, competition of [Tyr34]125I-hPTH(19-84) tracer): 20 µM

hPTH(39-84): C-terminal human PTH fragment 39-84, purchased from Peninsula (APLAPRDAGSQRPRKKEDNVLVESHEKSLGEADKADVNVLTKAKSQ; Parathyroid hormone; UniProt P01270 70-115, looked up, fragment)
IC50 (CPTHR [2]; C59 cells, 4 h at 15° C.): 0.5 to 0.7 µM | IC50 relative to hPTH(1-84) and hPTH(19-84) (CPTHR [2]; OC cells): roughly 15 fold | Downregulation of CPTHR binding (CPTHR [1]; 1 μM): No downregulation | Increase in trypan blue-stained cells over basal (OC14 cells [4]; 1000 nM, 16 hr): 1.5 fold | Binding and activation of the PTH1R (PTH1R): neither bind nor activate

hPTH(50-60): Short synthetic human PTH peptide spanning residues 50-60 (RPRKKEDNVLV; Parathyroid hormone; UniProt P01270 81-91, looked up, fragment)
Binding to the CPTHR (CPTHR [2]): failed to bind

hPTHrP(1-36): Human PTH-related peptide fragment 1-36
cAMP response (Gs-linked PTH receptors [5]): no detectable cAMP response

insulin: insulin
Downregulation of CPTHR binding (CPTHR [1]; 100 ng/mL): No downregulation
